Laboratory results from patent US11564928B1, “Cannabinoid receptor type 2 (CB2) modulators and uses thereof” (Teon Therapeutics, Inc., priority 2020, dated 2023).

Assays:
human CB2 receptor [1] = target: T1, human CB2 receptor (Homo sapiens (Human), UniProt P34972); assay: CB2 receptor binding assay ([3H]CP-55,940 displacement, HEK-293 membranes); conditions: membranes of HEK-293 cells with human recombinant CB2R, [3H]CP-55,940; read-out: CB2 IC50
human recombinant CB1R = human recombinant CB1R (Homo sapiens (Human), UniProt P21554); assay: CB1 receptor binding assay ([3H]CP-55,940 displacement, HEK-293 membranes); conditions: membranes of HEK-293 cells with human recombinant CB1R, [3H]CP-55,940; read-out: CB1 IC50
How it was run: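 Displacement of [3H]CP-55,940 was measured on human CB1R- or CB2R-transfected HEK-293 membranes after 120 min at 37 °C, in duplicate, with filtration and scintillation counting. For CB2R, incubation used Tris-HCl 50 mM, MgCl2 5 mM, CaCl2 1 mM, BSA 0.2%, pH 7.4. Ki values were derived from variable-slope IC50 fits using Cheng–Prusoff.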

human CB2 receptor [2] = target: T1, human CB2 receptor; assay: CB2 receptor cAMP assay (DiscoverX HitHunter cAMP XS+); type: cell-based; conditions: for Emax: CHO-K1, read-out: Max Stimulation %
How it was run: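 CHO-K1 cells expressing human CB2, HitHunter cAMP XS+ chemiluminescence. Agonist mode with EC80 forskolin, inverse agonist with EC20 forskolin, antagonist mode by compound preincubation 30 min then EC80 agonist plus EC80 forskolin; 30 or 60 min at 37 °C or RT, 1% vehicle. IC50 from variable-slope fit.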

human recombinant CB1R, sequence (P21554 whole entry): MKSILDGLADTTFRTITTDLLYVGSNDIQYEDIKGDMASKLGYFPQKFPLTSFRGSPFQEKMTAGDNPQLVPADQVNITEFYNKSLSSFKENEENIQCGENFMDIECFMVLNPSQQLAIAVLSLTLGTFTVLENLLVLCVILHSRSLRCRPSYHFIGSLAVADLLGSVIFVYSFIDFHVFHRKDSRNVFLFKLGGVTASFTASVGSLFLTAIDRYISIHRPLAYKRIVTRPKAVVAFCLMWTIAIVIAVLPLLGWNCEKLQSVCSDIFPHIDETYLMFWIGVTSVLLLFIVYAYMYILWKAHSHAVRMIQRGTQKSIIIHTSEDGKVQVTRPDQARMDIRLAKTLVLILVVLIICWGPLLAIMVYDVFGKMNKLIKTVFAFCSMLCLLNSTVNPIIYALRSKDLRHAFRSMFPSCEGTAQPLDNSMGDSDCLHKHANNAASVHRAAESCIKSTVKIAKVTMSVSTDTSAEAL
T1 sequence (P34972 whole entry): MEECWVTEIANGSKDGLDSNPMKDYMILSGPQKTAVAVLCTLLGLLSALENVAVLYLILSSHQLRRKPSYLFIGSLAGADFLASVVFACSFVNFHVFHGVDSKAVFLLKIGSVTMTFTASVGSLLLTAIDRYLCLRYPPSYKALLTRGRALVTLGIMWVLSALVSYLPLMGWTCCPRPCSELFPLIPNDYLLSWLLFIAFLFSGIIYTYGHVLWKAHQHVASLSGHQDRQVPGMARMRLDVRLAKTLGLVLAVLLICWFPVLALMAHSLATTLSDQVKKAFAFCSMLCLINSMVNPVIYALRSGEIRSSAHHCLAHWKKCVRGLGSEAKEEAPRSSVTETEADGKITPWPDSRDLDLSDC

Row | SMILES | IC50 (human CB2 receptor [1]) [nM] | IC50 (human recombinant CB1R) [nM] | IC50 (human CB2 receptor [2]) [nM] | Emax (human CB2 receptor [2]) [%]
1 | C[C@@H](NC(=O)c1cc2cc(C3CC3)cnc2n(Cc2ccc(F)cc2)c1=O)c1ccc(F)cc1 [Compound 94, (R)-6-cyclopropyl-1-(4-fluorobenzyl)-N-(1-(4-fluorophenyl)ethyl)-2-oxo-1,2-dihydro-1,8-naphthyridine-3-carboxamide] | 4.1 | 3260 | 0.8 | 55
2 | C[C@@H](NC(=O)c1cc2cc(C3CC3)cnc2n(Cc2ccc(F)cc2)c1=O)c1ccc(C#N)cc1 [Compound 95, (R)—N-(1-(4-cyanophenyl)ethyl)-6-cyclopropyl-1-(4-fluorobenzyl)-2-oxo-1,2-dihydro-1,8-naphthyridine-3-carboxamide] | 3.2 | 895 | 2 | 60
3 | O=C(NC1CC2(CCC2)C1)c1cc2cc(Br)cnc2n(Cc2ccc(F)cn2)c1=O [Compound 99, 6-bromo-1-((5-fluoropyridin-2-yl)methyl)-2-oxo-N-(spiro[3.3]heptan-2-yl)-1,2-dihydro-1,8-naphthyridine-3-carboxamide] | 12 | > 10000 | 53 | 89
4 | CC(C)c1cnc2c(c1)cc(C(=O)N[C@H](C)c1ccc(F)cc1)c(=O)n2Cc1ccc(F)cn1 [Compound 100, (R)—N-(1-(4-fluorophenyl)ethyl)-1-((5-fluoropyridin-2-yl)methyl)-6-isopropyl-2-oxo-1,2-dihydro-1,8-naphthyridine-3-carboxamide] | 4 | 2880 | 2 | 82
5 | C[C@@H](NC(=O)c1cc2cc(C3COC3)cnc2n(Cc2ccc(F)cc2)c1=O)c1ccc(C#N)cc1 [Compound 101, (R)—N-(1-(4-cyanophenyl)ethyl)-1-(4-fluorobenzyl)-6-(oxetan-3-yl)-2-oxo-1,2-dihydro-1,8-naphthyridine-3-carboxamide] | 7.6 | 2110 | 21 | 71
6 | O=C(NC1CC2(CCC2)C1)c1cc2cc(C3COC3)cnc2n(Cc2ccc(F)cc2)c1=O [Compound 102, 1-(4-fluorobenzyl)-6-(oxetan-3-yl)-2-oxo-N-(spiro[3.3]heptan-2-yl)-1,2-dihydro-1,8-naphthyridine-3-carboxamide] | 2.3 | 1610 | 3 | 79
7 | C[C@@H](NC(=O)c1cc2cc(C3COC3)cnc2n(Cc2ccc(F)cc2)c1=O)c1ccc(F)cc1 [Compound 103, (R)-1-(4-fluorobenzyl)-N-(1-(4-fluorophenyl)ethyl)-6-(oxetan-3-yl)-2-oxo-1,2-dihydro-1,8-naphthyridine-3-carboxamide] | 3 | 2900 | 9 | 91
8 | COc1ccc(-c2cnc3c(c2)cc(C(=O)NCc2ccc(F)cc2)c(=O)n3CCN2CCOCC2)cc1 [Compound 105, N-(4-fluorobenzyl)-6-(4-methoxyphenyl)-1-(2-morpholinoethyl)-2-oxo-1,2-dihydro-1,8-naphthyridine-3-carboxamide] | 14 | > 10000 | 28 | 116
